pKi: −log10 of the molar value. “And” between values parts separate entries of the source, which are not always exact repeats. Equal entries are not always repeated. Structures can show the parent of a compound that is named as a salt. Where two headings read alike, the source gives them in different places. Where only a bound is given, the exact number is not on record here.

As a reminder, the pKi is −log10 of the Ki, conventionally taken in molar units. Broadly, the melting point is the temperature, or range, at which the solid turns liquid.

Data set [1] addresses purified PARP protein (Homo sapiens, UniProt P09874). The data set is described as follows: PARP enzyme inhibition assay. Format: biochemical.
Where [2] appears, read: [32P]NAD+ incorporation, 500 μM NAD+, 25° C., two values in a cell = tested twice, read-out: Inhibition Constant Ki.

Chain of purified PARP protein (P09874 whole entry): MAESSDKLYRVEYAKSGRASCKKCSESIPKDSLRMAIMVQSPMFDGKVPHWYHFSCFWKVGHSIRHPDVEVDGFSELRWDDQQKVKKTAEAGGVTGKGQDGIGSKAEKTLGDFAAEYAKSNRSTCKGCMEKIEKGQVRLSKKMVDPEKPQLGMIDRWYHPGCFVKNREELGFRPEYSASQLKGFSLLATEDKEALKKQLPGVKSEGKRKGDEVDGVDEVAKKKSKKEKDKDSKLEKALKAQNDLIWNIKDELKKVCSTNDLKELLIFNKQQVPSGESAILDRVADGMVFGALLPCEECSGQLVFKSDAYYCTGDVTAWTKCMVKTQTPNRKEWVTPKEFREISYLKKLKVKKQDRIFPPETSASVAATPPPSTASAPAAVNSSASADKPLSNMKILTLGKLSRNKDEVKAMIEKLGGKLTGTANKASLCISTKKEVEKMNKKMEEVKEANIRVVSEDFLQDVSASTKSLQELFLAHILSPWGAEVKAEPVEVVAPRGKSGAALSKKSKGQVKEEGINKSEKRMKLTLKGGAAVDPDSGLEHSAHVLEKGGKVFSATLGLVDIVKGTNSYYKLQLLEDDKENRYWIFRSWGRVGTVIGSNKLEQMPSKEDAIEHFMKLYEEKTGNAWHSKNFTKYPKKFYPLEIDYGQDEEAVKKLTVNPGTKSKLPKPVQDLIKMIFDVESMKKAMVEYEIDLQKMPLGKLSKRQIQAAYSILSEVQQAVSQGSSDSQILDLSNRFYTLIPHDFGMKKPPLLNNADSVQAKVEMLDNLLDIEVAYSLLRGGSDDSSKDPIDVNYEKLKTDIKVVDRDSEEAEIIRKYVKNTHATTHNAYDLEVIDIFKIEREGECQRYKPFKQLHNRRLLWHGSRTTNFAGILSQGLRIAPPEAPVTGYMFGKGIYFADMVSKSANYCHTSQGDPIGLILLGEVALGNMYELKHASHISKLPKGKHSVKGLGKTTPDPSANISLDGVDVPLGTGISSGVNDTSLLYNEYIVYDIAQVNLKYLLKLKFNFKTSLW

Turning to `COc1ccc(C2CNC(=O)c3cccc4[nH]cc2c34)cc1` (racemic) [RRRR, (rac)-3-(4-Methoxyphenyl)-3,4,5,6-tetrahydro-1H-azepino[5,4,3-cd]indol-6-one], the pKi in data set [1] (setting [2]) was 7.21.
As for `O=C(O)c1[nH]c2cccc3c2c1CCNC3=O` [XXX, 6-Oxo-3,4,5,6-tetrahydro-1H-azepino[5,4,3-cd]indole-2-carboxylic Acid], the melting point was 298 to 299 °C (dec.). The pKi in data set [1] (setting [2]) was 6.43.
`O=C(Nc1cccc2ccccc12)c1[nH]c2cccc3c2c1CCNC3=O` [NNNN, 6-Oxo-1,3,4,5-tetrahydro-1H-azepino[5,4,3-cd]indole-2-carboxylic Acid naphthalen-1-ylamide]: the melting point is 330 to 332 °C (dec.). Moreover, the pKi in data set [1] (setting [2]) is 8.00.
For `O=C1NCCc2c(-c3cc4ccccc4o3)[nH]c3cccc1c23` [Compound 32, 2-Benzofuran-2-yl-1,3,4,5-tetrahydro-azepino[5,4,3-cd]indol-6-one] the same measures were 207 °C (dec.) and 7.95.
For `O=C1NCCc2c(-c3ccc(F)cc3F)[nH]c3cccc1c23` [Compound 39, 2-(2,4-Difluoro-phenyl)-1,3,4,5-tetrahydro-azepino[5,4,3-cd]indol-6-one] the same measures were 196 to 197 °C and 8.32.
As for `O=C1NCCc2c(I)[nH]c3cccc1c23` [Compound 43, 2-Iodo-1,3,4,5-tetrahydro-azepino[5,4,3-cd]indol-6-one], the pKi in data set [1] (setting [2]) is 8.59.
`COc1ccc(Cl)cc1-c1[nH]c2cccc3c2c1CCNC3=O` [SSS, 2-(5-Chloro-2-methoxy-phenyl)-3,4,5,6-tetrahydro-azepino[5,4,3-cd]indol-6-one] returned a melting point of 160 to 162 °C. Moreover, in data set [1] (setting [2]), the pKi is 7.18.
`O=C1NCCc2c(-c3cccc(-c4ccccc4)c3)[nH]c3cccc1c23` [RRR, 2-Biphenyl-3-yl-1,3,4,5-tetrahydro-azepino[5,4,3-cd]indol-6-one]: the melting point lay within 160 to 163 °C. The pKi in data set [1] (setting [2]) was 7.64.
Compound `O=C1NCCc2c(-c3cccnc3)[nH]c3cccc1c23` [HHH, 2-Pyridin-3-yl-1,3,4,5-tetrahydro-azepino[5,4,3-cd]indol-6-one] gave a melting point of 260.5 to 262 °C.
`CSc1ccccc1-c1[nH]c2cccc3c2c1CCNC3=O` [LLL, 2-(2-Methylsulfanyl-phenyl)-1,3,4,5-tetrahydro-azepino[5,4,3-cd]indol-6-one] yielded a melting point of 271 to 272 °C. In addition, in data set [1] (setting [2]), the pKi is 7.49.
The like results for `C[S+]([O-])c1ccc(-c2[nH]c3cccc4c3c2CCNC4=O)cc1` (centres unmarked) [FFFF, 2-(4-Methanesulfinyl-phenyl)-1,3,4,5-tetrahydro-azepino[5,4,3-cd]indol-6-one] were, in that order, 316 to 317 °C (dec.) and 8.33.
In the case of `O=C(Nc1ccc(Cl)cc1)c1[nH]c2cccc3c2c1CCNC3=O` [LLLL, 6-Oxo-1,3,4,5-tetrahydro-1H-azepino[5,4,3-cd]indole-2-carboxylic acid (4-chlorophenyl)-amide], in data set [1] (setting [2]), the pKi was 8.07.
Consider `O=C1NCCc2c(-c3ccc4ccccc4c3)[nH]c3cccc1c23` [XX, 2-Naphthalen-2-yl-1,3,4,5-tetrahydro-azepino[5,4,3-cd]indol-6-one], for which the melting point lay in the range of 261 to 262 °C. In data set [1] (setting [2]), the pKi was 8.34.
Take `O=C1NN=Cc2c(-c3ccc(Cl)cc3)[nH]c3cccc1c23` [ZZZ, (4-Chloro-phenyl)-1,5-dihydro-[1,2]diazepino[4,5,6-cd]indol-6-one]: the pKi in data set [1] (setting [2]) was 9.15.
Consider `O=C1NCCc2c(-c3cc(C(F)(F)F)cc(C(F)(F)F)c3)[nH]c3cccc1c23` [Compound 33, 2-(3,5-bis-Trifluoromethyl-phenyl)-1,3,4,5-tetrahydro-azepino[5,4,3-cd]indol-6-one], for which the melting point was 230 °C (dec.). Moreover, the pKi in data set [1] (setting [2]) is 6.64.
As to `CSc1ccc(-c2[nH]c3cccc4c3c2CCNC4=O)cc1` [EEEE, 2-(4-Methylsulfanyl-phenyl)-1,3,4,5-tetrahydro-azepino[5,4,3-cd]indol-6-one], the melting point was in the range of 250 to 251 °C. Further, the pKi in data set [1] (setting [2]) is 8.54.
In data set [1] (Inhibition Constant Ki), `O=C1NCCc2c(-c3ccc[nH]3)[nH]c3cccc1c23` [DDDD, 2-(1H-Pyrrol-2-yl)-1,3,4,5-etatrhydro-azepino[5,4,3-cd]indol-6-one] gave a pKi of 8.11.
In the case of `CN1CCc2c(-c3ccccc3)n(C)c3cccc(c23)C1=O` [Compound 18a, 1,5-dimethyl-2-phenyl-3,4,5,6-tetrahydro-1H-azepino[5,4,3-cd]indol-6-one], the melting point was in the range of 175 to 177 °C.
Consider `O=C1NCCc2c(-c3ccc(Br)cc3)[nH]c3cccc1c23` [Compound 34, 2-(4-Bromophenyl)-1,3,4,5-tetrahydro-azepino[5,4,3-cd]indol-6-one], for which the melting point was 160 °C (dec.). Also, the pKi in data set [1] (setting [2]) was 8.41.
Take `O=C1NCCc2c[nH]c3cccc1c23` [Compound 10, 3,4,5,6-tetrahydro-1H-azepino[5,4,3-cd]indol-6-one]: the pKi in data set [1] (setting [2]) is 7.42.
Turning to `O=C1NCCc2c(-c3ccccc3)[nH]c3cc(Br)cc1c23` [Compound 26, 8-Bromo-2-phenyl-3,4,5,6-tetrahydro-1H-azepino[5,4,3-cd]indol-6-one], the pKi in data set [1] (setting [2]) is 7.66 and 7.74.
On to `O=C1NCc2c(-c3ccccc3)[nH]c3cccc1c23` [Compound 3, Phenyl-3,4-dihydropyrrolo[4,3,2-de]isoquinolin-5-(1H)-one], for which the pKi in data set [1] (setting [2]) is 8.55.
Same read-out and setting: the value for `Nc1cccc(-c2[nH]c3cccc4c3c2CCNC4=O)c1` [RR, 2-(3-Aminophenyl)-3,4,5,6-tetrahydro-1H-azepino[5,4,3-cd]indol-6-one] was 8.16.
For the compound `O=C(Nc1ccccc1)c1[nH]c2cccc3c2c1CCNC3=O` [KKKK, 6-Oxo-1,3,4,5-tetrahydro-1H-azepino[5,4,3-cd]indole-2-carboxylic Acid Phenylamide], the melting point is 320 to 322 °C (dec.).
For the compound `O=C(Nc1ccc2ccccc2c1)c1[nH]c2cccc3c2c1CCNC3=O` [MMMM, 6-Oxo-1,3,4,5-tetrahydro-1H-azepino[5,4,3-cd]indole-2-carboxylic Acid naphthalen-2-ylamide], in data set [1] (setting [2]), the pKi is 7.80.
`O=C1NCCc2c(-c3[nH]c4cccc5c4c3CCNC5=O)[nH]c3cccc1c23` [Compound TTT, 1,3,4,5,1′,3′,4′,5′-Octahydro-[2,2′]bi[azepino[5,4,3-cd]indolyl]-6,6′-dione]: in data set [1] (setting [2]), the pKi was 7.59.
For `O=C1NCCc2c(C#Cc3ccccc3)[nH]c3cccc1c23` [Compound 17], in data set [1] (setting [2]), the pKi was 8.19.
In the case of `CC(=O)Nc1ccc(F)cc1-c1[nH]c2cccc3c2c1CCNC3=O` [NNN, N-[4-Fluoro-2-(6-oxo-3,4,5,6-tetrahydro-1H-azepino[5,4,3-cd]indol-2-yl)-phenyl]-acetamide], in data set [1] (setting [2]), the pKi was 6.76.
Still for that read-out and setting: the value for `O=C1NCCc2c(-c3cccc(CN4CCOCC4)c3)[nH]c3cccc1c23` [SSSS, 2-(3-Morpholin-4-ylmethylphenyl)-3,4,5,6-tetrahydro-1H-azepino[5,4,3-cd]indol-6-one] was 7.72; that for `CN(C)Cc1cccc(-c2[nH]c3cccc4c3c2CNC4=O)c1` [Compound 25] was 8.40; that for `Cn1c(-c2ccccc2)c2c3c(cccc31)C(=O)NCC2` [Compound 18, 1-Methyl-2-phenyl-3,4,5,6-tetrahydro-1H-azepino[5,4,3-cd]indol-6-one] was < 6.00.
In the case of `O=C1NN=C(C(F)(F)C(F)(F)F)c2c[nH]c3cccc1c23` [ZZZZ, 1,5-Dihydro-3-pentafluoroethyl-[1,2]diazepino[4,5,6-cd]-indol-6-one], in data set [1] (setting [2]), the pKi is 7.40.
For `O=C1NCCc2c(-c3ccc4[nH]ccc4c3)[nH]c3cccc1c23` [VVV, 2-(1H-Indol-5-yl)-1,3,4,5-tetrahydro-azepino[5,4,3-cd]indol-6-one], the melting point was 315 to 317 °C (dec.).
On to `O=C1NCC(c2ccccc2)c2c[nH]c3cccc1c23` (racemic) [Compound 20, (rac)-3-Phenyl-3,4,5,6-tetrahydro-1H-azepino[5,4,3-cd]indol-6-one], for which the pKi in data set [1] (setting [2]) was 7.35.
Take `O=C1NN=Cc2c(-c3ccc(F)cc3)[nH]c3cccc1c23` [AAAA]: the pKi in data set [1] (setting [2]) is 8.96.
For the compound `O=C1NCCc2c(-c3cccc4ccccc34)[nH]c3cccc1c23` [Compound 41, 2-Naphthalen-1-yl-1,3,4,5-tetrahydro-azepino[5,4,3-cd]indol-6-one], the melting point was 305 °C (dec.).
On to `O=C1NCCc2c(-c3cccs3)[nH]c3cccc1c23` [BBBB, 2-Thiophen-2-yl-1,3,4,5-tetrahydro-azepino[5,4,3-cd]indol-6-one], for which the melting point lay in the range of 220.5 to 222.5 °C.
For `O=C1NCCc2c(-c3cccc([N+](=O)[O-])c3)[nH]c3cccc1c23` [Compound 14, 2-(3-Nitrophenyl)-3,4,5,6-tetrahydro-1H-azepino[5,4,3-cd]indol-6-one], the pKi in data set [1] (setting [2]) was 8.85.
As to `O=C(NC1CC1)c1[nH]c2cccc3c2c1CCNC3=O` [QQQQ, 6-Oxo-1,3,4,5-tetrahydro-1H-azepino[5,4,3-cd]indole-2-carboxylic Acid Cyclopropylamide], the pKi in data set [1] (setting [2]) is 7.68.
The same measure, in the same setting: under `O=C1NN=C(c2ccc(C(F)(F)F)cc2)c2c[nH]c3cccc1c23` [YYYY] stands 8.05; under `O=C1NCCc2c(Br)[nH]c3cccc1c23` [Compound 11, 2-Bromo-3,4,5,6-tetrahydro-1H-azepino[5,4,3-cd]indol-6-one], 8.14; under `O=C1NCCc2c(-c3ccc(F)c(Cl)c3)[nH]c3cccc1c23` [Compound 35, 2-(3-Chloro-4-fluoro-phenyl)-1,3,4,5-tetrahydro-azepino[5,4,3-cd]indol-6-one], 8.42 and 8.24.
Same read-out and setting: the value for `O=C(O)c1[nH]c2cccc3c2c1CCNC3=O` [KKK, 6-Oxo-3,4,5,6-tetrahydro-1H-azepino[5,4,3-cd]indole-2-carboxylic acid sodium salt] was 6.65; that for `O=C1NCCc2c(-c3ccc(CO)cc3)[nH]c3cccc1c23` [WWWW, 2-(4-Hydroxymethylphenyl)-3,4,5,6-tetrahydro-1H-azepino[5,4,3-cd]indol-6-one] was 8.24.

(Values after patent US7429578B2, “Tricyclic inhibitors of poly(ADP-ribose) polymerases” (Agouron Pharmaceuticals, Inc., priority 1999, dated 2008).)
